Measured values published in US6924278B2, “Aroyl-piperazine derivatives, their preparation and their use as tachykinin antagonists” (Fujisawa Pharmaceutical Co., Ltd., priority 1997, dated 2005).
Values belong to the compound of their own block, whether it stands above or below them.

How the values were obtained:
h-NK1 receptors = molecular target: T1, h-NK1 receptors (Homo sapiens, UniProt P25103); assay: Evaluation of NK1 antagonist transport efficiency to the central nervous system using a h-NK1 receptor binding assay (brain extract after i.v. dosing of rats); conditions: 5 min; compound extracted from brain of male SD rats 5 min after i.v. injection at the dose of 1 mg/kg; CHO cell membranes expressing h-NK1; read-out: inhibition rate of 125I-BH-Substance P binding to h-NK1 receptors
T1 construct: expressed in transfected cells; host or cells: CHO cells (permanent expression), crude cell membranes
Method: A. Evaluation of NK1 Antagonist Transport Efficiency to the Cental Nervous System using a h-NK1 Receptor Binding Assay
(1) Administration of Test Compound and Extraction of the Compound from Brain
Male SD rats were given an i.v. injection of a solution containing a test compound (1 mg/kg). 5 Min later the animals were anesthetized by ether, bled and perfused through the aorta ascendens with 20 ml of saline. The brain was rapidly removed, weighed and homogenized in 4 vol. ice-cold distilled water by using Polytoron (KINEMATICA). To extract the test compound, 500 μl of the homogenate, 100 μl of methanol, 500 μl of 0.1 N NaOH and 4 ml of ethyl acetate were mixed by shaking for 10 min at room temperature. The organic phase (2.5 ml) was recovered by centrifugation at 3,000 rpm for 10 min, dried and dissolved in dimethyl sulfoxide.
(2) h-NK1 Receptor Binding Assay
(a) Crude CHO Cell Membrane Preparation
CHO cells permanently expressing h-NK1 receptors were harvested and homogenized with a Dounce homogenizer at 4° C. in a buffer (0.25 M sucrose, 25 mM Tris-HCl (pH 7.4), 10 mM MgCl2, 1 mM EDTA, 5 μg/ml p-APMSF). The homogenate was centrifuged (500×g, 10 min), and the pellet was resuspended in the same buffer, homogenized, and centrifuged. The two supernatants were combined and centrifuged (100,000×g, 1 hour). The crude cell membranes thus isolated were resuspended in a buffer (25 mM Tris-HCl (pH 7.4), 10 mM MgCl2, 1 mM. EDTA, 5 μg/ml p-APMSF) and stored at −80° C. until use.
(b) ^125I-BH-Substance P Binding to the Prepared Membrane
Cell membranes (6 μg/ml) were incubated with ^125I-BH-Substance P (0.1 nM) with or without the extracted compounds in 0.25 ml of a medium (50 mM Tris-HCl (pH 7.4), 5 mM MnCl2, 20 μg/ml chymostatin, 40 μg/ml bacitracin, 4 μg/ml leupeptin, 5 μg/ml p-APMSF, 200 μg/ml BSA) at 22° C. for 90 min. At the end of the incubation period, the contents were quickly filtered through a Blue Mat 11740 filter (pretreated with 0.1% polyethylenimine for 3 hours prior to use) by using SKATRON Cell Harvester. The filter was then washed with a washing buffer (50 mM Tris-HCl (pH 7.4), 5 mM MnCl2). The radioactivity was counted by using an auto gamma counter (Packard RIASTAR 5420A). All data presented are specific binding defined as that displaceable by 3 μM unlabeled Substance P.

T1 sequence (P25103 whole entry): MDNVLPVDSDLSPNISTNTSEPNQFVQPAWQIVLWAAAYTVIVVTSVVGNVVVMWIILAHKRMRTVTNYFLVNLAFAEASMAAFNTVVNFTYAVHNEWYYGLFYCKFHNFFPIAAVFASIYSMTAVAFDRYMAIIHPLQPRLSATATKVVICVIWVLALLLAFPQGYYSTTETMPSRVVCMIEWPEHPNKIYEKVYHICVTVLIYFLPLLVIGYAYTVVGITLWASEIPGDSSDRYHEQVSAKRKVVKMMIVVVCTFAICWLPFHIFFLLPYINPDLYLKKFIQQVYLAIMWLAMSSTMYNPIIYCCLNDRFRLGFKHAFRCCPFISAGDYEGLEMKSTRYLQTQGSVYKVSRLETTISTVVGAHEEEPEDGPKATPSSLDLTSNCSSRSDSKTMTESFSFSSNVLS

SMILES: COC[C@H]1COCCN1C/C=C/CN1CCN(C(=O)c2cc(C(F)(F)F)cc(C(F)(F)F)c2)[C@H](Cc2ccc(C)c(C)c2)C1.Cl.Cl [73-(3), (2R)-1-[3,5-Bis(trifluoromethyl)benzoyl]-2-(3,4-dimethylbenzyl)-4-[(E)-4-((3S)-3-methoxymethylmorpholino)-2-butenyl]piperazine dihydrochloride]
inhibition at 1 mg/kg (h-NK1 receptors): > 80%
melting point: 130 to 140 °C

SMILES: CC1(C)COCCN1CCN1CCN(C(=O)c2cc(C(F)(F)F)cc(C(F)(F)F)c2)[C@H](Cc2c[nH]c3ccccc23)C1.Cl.Cl [79-(1), (2R)-1-[3,5-Bis(trifluoromethyl)benzoyl]-4-[2-(3,3-dimethylmorpholino)ethyl]-2-[(1H-indol-3-yl)methyl]piperazine dihydrochloride]
inhibition at 1 mg/kg (h-NK1 receptors): > 80%
melting point: 247 to 258 °C

SMILES: Cc1ccc(C[C@@H]2CN(CCN3CCOCC3(C)C)CCN2C(=O)c2cc(C(F)(F)F)cc(C(F)(F)F)c2)cc1C.Cl.Cl [79-(2), (2R)-1-[3,5-Bis(trifluoromethyl)benzoyl]-2-(3,4-dimethylbenzyl)-4-[2-(3,3-dimethylmorpholino)ethyl]piperazine dihydrochloride]
inhibition at 1 mg/kg (h-NK1 receptors): > 80%
melting point: 190 to 210 °C

SMILES: Cc1ccc(C[C@@H]2CN(CCN3CCOC[C@@H]3CO)CCN2C(=O)c2cc(C(F)(F)F)cc(C(F)(F)F)c2)cc1C.Cl.Cl [80-(2), (2R)-1-[3,5-Bis(trifluoromethyl)benzoyl]-2-(3,4-dimethylbenzyl)-4-[2-((3S)-3-hydroxymethylmorpholino)ethyl]piperazine dihydrochloride]
inhibition at 1 mg/kg (h-NK1 receptors): > 80%
melting point: 150 to 160 °C

SMILES: Cc1ccc(C[C@@H]2CN(CCN3CCOC[C@@H]3CF)CCN2C(=O)c2cc(C(F)(F)F)cc(C(F)(F)F)c2)cc1C.Cl.Cl [81-(1), (2R)-1-[3,5-Bis(trifluoromethyl)benzoyl]-2-(3,4-dimethylbenzyl)-4-[2-((3R)-3-fluoromethylmorpholino)ethyl]piperazine dihydrochloride]
inhibition at 1 mg/kg (h-NK1 receptors): > 80%
melting point: 145 to 155 °C

SMILES: CC1(C)COCCN1CC#CCN1CCN(C(=O)c2cc(C(F)(F)F)cc(C(F)(F)F)c2)C(Cc2cc3ccccc3[nH]2)C1.Cl.Cl (stereo not shown) [89-(1), 1-[3,5-Bis(trifluoromethyl)benzoyl]-2-[(1H-indol-2-yl)methyl]-4-[4-(3,3-dimethylmorpholino)-2-butynyl]piperazine dihydrochloride]
inhibition at 1 mg/kg (h-NK1 receptors): > 80%
melting point: 185 °C

SMILES: CN(C)c1cc(C(=O)N2CCN(CC#CCN3CCOCC3(C)C)C[C@H]2Cc2c[nH]c3ccccc23)cc(C(F)(F)F)c1.Cl.Cl [90-(2), (2R)-1-[3-(Dimethylamino)-5-(trifluoromethyl)benzoyl]-4-[4-(3,3-dimethylmorpholino)-2-butynyl]-2-[(1H-indol-3-yl)methyl]piperazine dihydrochloride]
inhibition at 1 mg/kg (h-NK1 receptors): > 80%
melting point: 210 to 225 °C

SMILES: CC1(C)COCCN1CC#CCN1CCN(C(=O)c2cc([N+](=O)[O-])cc(C(F)(F)F)c2)[C@H](Cc2c[nH]c3ccccc23)C1.Cl.Cl [90-(3), (2R)-4-[4-(3,3-Dimethylmorpholino)-2-butynyl]-2-[(1H-indol-3-yl)methyl]-1-[3-nitro-5-(trifluoromethyl)benzoyl]piperazine dihydrochloride]
inhibition at 1 mg/kg (h-NK1 receptors): > 80%
melting point: 198 to 220 °C

SMILES: CNc1cc(C(=O)N2CCN(CC#CCN3CCOCC3(C)C)C[C@H]2Cc2ccc(C)c(C)c2)cc(C(F)(F)F)c1.Cl.Cl [90-(4), (2R)-2-(3,4-Dimethylbenzyl)-4-[4-(3,3-dimethylmorpholino)-2-butynyl]-1-[3-(methylamino)-5-(trifluoromethyl)benzoyl]piperazine dihydrochloride]
inhibition at 1 mg/kg (h-NK1 receptors): > 80%
melting point: 195 to 205 °C

The remaining lines, values ahead:

inhibition at 1 mg/kg (h-NK1 receptors): > 80%
melting point: 197 °C
SMILES: Cc1ccc(C[C@@H]2CN(CCCN3CCOCC3(C)C)CCN2C(=O)c2cc(C(F)(F)F)cc(C(F)(F)F)c2)cc1C.Cl.Cl [78-(4), (2R)-1-[3,5-Bis(trifluoromethyl)benzoyl]-2-(3,4-dimethylbenzyl)-4-[3-(3,3-dimethylmorpholino)propyl]piperazine dihydrochloride]

inhibition at 1 mg/kg (h-NK1 receptors): > 80%
melting point: 90 to 100 °C
SMILES: COC[C@H]1COCCN1CCN1CCN(C(=O)c2cc(C(F)(F)F)cc(C(F)(F)F)c2)[C@H](Cc2ccc(C)c(C)c2)C1.Cl.Cl [80-(4), (2R)-1-[3,5-Bis(trifluoromethyl)benzoyl]-2-(3,4-dimethylbenzyl)-4-[2-((3S)-3-methoxymethylmorpholino)ethyl]piperazine dihydrochloride]

inhibition at 1 mg/kg (h-NK1 receptors): > 80%
melting point: 55 to 60 °C
SMILES: COC[C@H]1COCCN1CCCN1CCN(C(=O)c2cc(C(F)(F)F)cc(C(F)(F)F)c2)[C@H](Cc2ccc(C)c(C)c2)C1.Cl.Cl [80-(6), (2R)-1-[3,5-Bis(trifluoromethyl)benzoyl]-2-(3,4-dimethylbenzyl)-4-[3-((3S)-3-methoxymethylmorpholino)propyl]piperazine dihydrochloride]

inhibition at 1 mg/kg (h-NK1 receptors): > 80%
melting point: 145 to 155 °C
SMILES: COCC1CN(CCCN2CCN(C(=O)c3cc(C(F)(F)F)cc(C(F)(F)F)c3)[C@H](Cc3ccc(C)c(C)c3)C2)CCO1.Cl (stereo partly drawn) [80-(7), (2R)-1-[3,5-Bis(trifluoromethyl)benzoyl]-2-(3,4-dimethylbenzyl)-4-[3-(2-methoxymethylmorpholino)propyl]piperazine hydrochloride]

inhibition at 1 mg/kg (h-NK1 receptors): > 80%
melting point: 60 to 70 °C
SMILES: COCC1(C)COCCN1CCN1CCN(C(=O)c2cc(C(F)(F)F)cc(C(F)(F)F)c2)[C@H](Cc2ccc(C)c(C)c2)C1.Cl.Cl (stereo partly drawn) [81-(2), (2R)-1-[3,5-Bis(trifluoromethyl)benzoyl]-2-(3,4-dimethylbenzyl)-4-[2-(3-methoxymethyl-3-methylmorpholino)ethyl]piperazine dihydrochloride]

inhibition at 1 mg/kg (h-NK1 receptors): > 80%
melting point: 60 to 65 °C
SMILES: CCOC[C@H]1COCCN1CCN1CCN(C(=O)c2cc(C(F)(F)F)cc(C(F)(F)F)c2)[C@H](Cc2ccc(C)c(C)c2)C1.Cl.Cl [81-(3), (2R)-1-[3,5-Bis(trifluoromethyl)benzoyl]-2-(3,4-dimethylbenzyl)-4-[2-((3S)-3-ethoxymethylmorpholino)ethyl]piperazine dihydrochloride]

inhibition at 1 mg/kg (h-NK1 receptors): > 80%
melting point: 90 to 100 °C
SMILES: COC[C@@H]1COCCN1CCN1CCN(C(=O)c2cc(C(F)(F)F)cc(C(F)(F)F)c2)[C@H](Cc2ccc(C)c(C)c2)C1.Cl.Cl [81-(4), (2R)-1-[3,5-Bis(trifluoromethyl)benzoyl]-2-(3,4-dimethylbenzyl)-4-[2-((3R)-3-methoxymethylmorpholino)ethyl]piperazine dihydrochloride]

inhibition at 1 mg/kg (h-NK1 receptors): > 80%
melting point: 160 to 170 °C
SMILES: COC[C@H]1CN(CCN2CCN(C(=O)c3cc(C(F)(F)F)cc(C(F)(F)F)c3)[C@H](Cc3ccc(C)c(C)c3)C2)CCO1.Cl.Cl [81-(5), (2R)-1-[3,5-Bis(trifluoromethyl)benzoyl]-2-(3,4-dimethylbenzyl)-4-[2-((2R)-2-methoxymethylmorpholino)ethyl]piperazine dihydrochloride]
